Assay results: ChEMBL document CHEMBL1909046, “DrugMatrix in vitro pharmacology data”

How the values were obtained:
[1] = target: T1, Alpha-2A adrenergic receptor (Homo sapiens, UniProt P08913); type: cell membranes, Sf9, Membrane; further: in other assays of this panel Not Active means under 50% inhibition at 10 µM
T1 sequence (P08913 whole entry): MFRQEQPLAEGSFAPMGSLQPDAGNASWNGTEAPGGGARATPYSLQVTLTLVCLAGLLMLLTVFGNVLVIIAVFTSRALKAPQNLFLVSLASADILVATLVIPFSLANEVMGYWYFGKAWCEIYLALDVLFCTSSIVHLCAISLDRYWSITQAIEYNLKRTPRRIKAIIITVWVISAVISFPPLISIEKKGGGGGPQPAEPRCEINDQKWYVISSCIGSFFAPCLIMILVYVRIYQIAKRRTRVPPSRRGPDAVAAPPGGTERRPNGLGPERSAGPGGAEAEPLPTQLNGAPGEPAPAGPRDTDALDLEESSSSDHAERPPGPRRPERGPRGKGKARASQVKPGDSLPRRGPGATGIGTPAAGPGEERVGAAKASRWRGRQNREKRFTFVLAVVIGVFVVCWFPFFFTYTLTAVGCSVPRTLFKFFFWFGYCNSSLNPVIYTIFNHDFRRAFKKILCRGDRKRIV

Cannabinoid receptor 1 = Cannabinoid receptor 1 (Homo sapiens, UniProt P21554); type: cell membranes, Membrane; conditions: chem-1; further: in other assays of this panel Not Active means under 50% inhibition at 10 µM
Cannabinoid receptor 1, sequence (P21554 whole entry): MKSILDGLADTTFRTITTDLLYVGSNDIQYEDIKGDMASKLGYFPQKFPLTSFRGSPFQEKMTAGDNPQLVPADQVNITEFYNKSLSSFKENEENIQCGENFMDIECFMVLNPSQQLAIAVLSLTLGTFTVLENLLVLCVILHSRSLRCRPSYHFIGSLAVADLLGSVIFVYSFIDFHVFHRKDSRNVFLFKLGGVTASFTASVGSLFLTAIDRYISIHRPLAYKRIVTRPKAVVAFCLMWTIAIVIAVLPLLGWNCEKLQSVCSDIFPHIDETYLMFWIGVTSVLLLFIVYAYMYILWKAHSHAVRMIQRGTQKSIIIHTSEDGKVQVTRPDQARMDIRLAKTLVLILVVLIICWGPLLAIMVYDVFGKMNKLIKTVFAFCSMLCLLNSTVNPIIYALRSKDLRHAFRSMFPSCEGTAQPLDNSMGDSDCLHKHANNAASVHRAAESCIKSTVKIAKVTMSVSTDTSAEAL

Carbonic anhydrase 2 = Carbonic anhydrase 2 (Homo sapiens, UniProt P00918); test: DRUGMATRIX: Carbonic Anhydrase II enzyme inhibition (substrate: 4-Nitrophenyl acetate (4-NPA)); type: tissue-based, Erythrocyte; conditions: Not Active = under 50% inhibition at 10 µM
Endothelin-1 receptor = target: T2, Endothelin-1 receptor (Homo sapiens, UniProt P25101); type: cell membranes, CHO-K1, Membrane; conditions: cho-k1; further: in other assays of this panel Not Active means under 50% inhibition at 10 µM
T2 sequence (P25101 whole entry): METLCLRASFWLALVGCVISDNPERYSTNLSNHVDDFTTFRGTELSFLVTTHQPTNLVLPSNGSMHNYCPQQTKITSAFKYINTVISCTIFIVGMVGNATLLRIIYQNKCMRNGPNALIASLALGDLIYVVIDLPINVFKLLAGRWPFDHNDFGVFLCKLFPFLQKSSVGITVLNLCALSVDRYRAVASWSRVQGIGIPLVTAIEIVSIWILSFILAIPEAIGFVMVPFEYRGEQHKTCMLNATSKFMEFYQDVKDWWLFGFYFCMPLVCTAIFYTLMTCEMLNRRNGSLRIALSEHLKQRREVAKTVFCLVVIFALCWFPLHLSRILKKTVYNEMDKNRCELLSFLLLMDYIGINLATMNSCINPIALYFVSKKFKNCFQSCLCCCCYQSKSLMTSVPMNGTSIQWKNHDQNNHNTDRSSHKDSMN

[2] = target: Kappa-type opioid receptor (Homo sapiens, UniProt P41145); test: DRUGMATRIX: Opiate kappa (OP2, KOP) radioligand binding (ligand: [3H] Diprenorphine); type: cell membranes, HEK293, Membrane; conditions: Not Active = under 50% inhibition at 10 µM
Kappa-type opioid receptor, sequence (P41145 whole entry): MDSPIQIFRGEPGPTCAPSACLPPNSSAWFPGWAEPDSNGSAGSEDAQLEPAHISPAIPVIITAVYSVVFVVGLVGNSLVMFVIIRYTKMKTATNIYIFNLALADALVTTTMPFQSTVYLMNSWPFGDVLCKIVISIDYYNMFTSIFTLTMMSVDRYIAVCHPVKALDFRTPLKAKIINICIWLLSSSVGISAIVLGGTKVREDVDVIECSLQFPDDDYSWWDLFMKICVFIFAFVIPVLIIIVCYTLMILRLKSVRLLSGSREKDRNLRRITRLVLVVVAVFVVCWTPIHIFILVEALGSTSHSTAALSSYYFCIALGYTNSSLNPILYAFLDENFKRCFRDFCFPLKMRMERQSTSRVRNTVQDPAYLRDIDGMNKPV

[3] = target: Protein phosphatase 3 catalytic subunit alpha (Homo sapiens, UniProt Q08209); design: species or system Escherichia coli;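 further: inhibition of calcineurin (PP2B) enzyme activity, measured with DiFMUP as the substrate; in other assays of this panel Not Active means under 50% inhibition at 10 µM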

| Structure (SMILES) | IC50 ([1]; sf9) | IC50 (Cannabinoid receptor 1) | IC50 (Carbonic anhydrase 2; erythrocyte) | IC50 (Endothelin-1 receptor) | IC50 ([2]; hek293) | IC50 [3] | IC50 (Carbonic anhydrase 2; read-out: IC50) [nM] | Ki [2] [nM] | IC50 ([2]; read-out: IC50) [nM] | IC50 ([1]; read-out: IC50) [nM] | Ki ([1]; read-out: Ki) [nM] | IC50 ([3]; read-out: IC50) [nM] |
| --- | --- | --- | --- | --- | --- | --- | --- | --- | --- | --- | --- | --- |
| C[C@@H]1CN(c2c(F)c(N)c3c(=O)c(C(=O)O)cn(C4CC4)c3c2F)C[C@H](C)N1 [SPARFLOXACIN] | Not Active | Not Active | Not Active | Not Active | Not Active | Not Active | – | – | – | – | – | – |
| CC1(C)O[C@@H]2C[C@H]3[C@@H]4CCC5=CC(=O)C=C[C@]5(C)[C@@]4(F)[C@@H](O)C[C@]3(C)[C@]2(C(=O)CO)O1 [TRIAMCINOLONE ACETONIDE] | Not Active | Not Active | Not Active | Not Active | Not Active | Not Active | – | – | – | – | – | – |
| CSc1ccc(/C=C2/C(C)=C(CC(=O)O)c3cc(F)ccc32)cc1 [SULINDAC SULFIDE] | Not Active | Not Active | Not Active | Not Active | Not Active | Not Active | – | – | – | – | – | – |
| Nc1c2c(nc3ccccc13)CCCC2 [TACRINE] | Not Active | Not Active | Not Active | Not Active | Not Active | Not Active | – | – | – | – | – | – |
| N[C@@H](Cc1ccc(O)c(O)c1)C(=O)O [LEVODOPA] | Not Active | Not Active | Not Active | Not Active | Not Active | Not Active | – | – | – | – | – | – |
| O=NN(CCCl)C(=O)NC1CCCCC1 [LOMUSTINE] | Not Active | Not Active | Not Active | Not Active | Not Active | Not Active | – | – | – | – | – | – |
| Cc1c(C)c2c(c(C)c1O)CCC(C)(COc1ccc(CC3SC(=O)NC3=O)cc1)O2 (centres undefined) [TROGLITAZONE] | Not Active | Not Active | – | Not Active | Not Active | Not Active | 970 | – | – | – | – | – |
| CCOC(=O)N1CCC(=C2c3ccc(Cl)cc3CCc3cccnc32)CC1 [LORATADINE] | Not Active | Not Active | Not Active | Not Active | Not Active | Not Active | – | – | – | – | – | – |
| Cc1cccc(N(C)C(=S)Oc2ccc3ccccc3c2)c1 [TOLNAFTATE] | Not Active | Not Active | Not Active | Not Active | Not Active | Not Active | – | – | – | – | – | – |
| NC[C@H]1CC[C@H](C(=O)O)CC1 [TRANEXAMIC ACID] | Not Active | Not Active | Not Active | Not Active | Not Active | Not Active | – | – | – | – | – | – |
| c1ccc([C@H]2CN3CCSC3=N2)cc1 [LEVAMISOLE] | Not Active | Not Active | Not Active | Not Active | Not Active | Not Active | – | – | – | – | – | – |
| OCCN(CCO)c1nc(N2CCCCC2)c2nc(N(CCO)CCO)nc(N3CCCCC3)c2n1 [DIPYRIDAMOLE] | Not Active | Not Active | Not Active | Not Active | Not Active | Not Active | – | – | – | – | – | – |
| CC(C)(C)NC(=O)[C@@H]1C[C@@H]2CCCC[C@@H]2CN1C[C@@H](O)[C@H](Cc1ccccc1)NC(=O)[C@H](CC(N)=O)NC(=O)c1ccc2ccccc2n1 | Not Active | Not Active | Not Active | Not Active | – | Not Active | – | 2780 | 6950 | – | – | – |
| Nc1nc2nc[nH]c2c(=S)[nH]1 [THIOGUANINE] | Not Active | Not Active | Not Active | Not Active | Not Active | Not Active | – | – | – | – | – | – |
| Cn1ccnc1S [METHIMAZOLE] | Not Active | Not Active | Not Active | Not Active | Not Active | Not Active | – | – | – | – | – | – |
| Cc1oncc1C(=O)Nc1ccc(C(F)(F)F)cc1 [LEFLUNOMIDE] | Not Active | Not Active | Not Active | Not Active | Not Active | Not Active | – | – | – | – | – | – |
| CC/C(=C(\c1ccccc1)c1ccc(OCCN(C)C)cc1)c1ccccc1 [TAMOXIFEN] | – | Not Active | Not Active | Not Active | – | – | – | 6250 | – | 1930 | 726 | 30600 |
| COc1c(C)c2c(c(O)c1C/C=C(\C)CCC(=O)O)C(=O)OC2 [MYCOPHENOLIC ACID] | Not Active | Not Active | Not Active | Not Active | Not Active | Not Active | – | – | – | – | – | – |
| CCCOc1ccccc1-c1nc2nn[nH]c2c(=O)[nH]1 [ZAPRINAST] | Not Active | Not Active | Not Active | Not Active | Not Active | Not Active | – | – | – | – | – | – |
| C=CCC1(C(C)CCC)C(=O)NC(=O)NC1=O (centres undefined) [SECOBARBITAL] | Not Active | Not Active | Not Active | Not Active | Not Active | Not Active | – | – | – | – | – | – |
| CC(=O)[C@@]1(O)CC[C@H]2[C@@H]3C[C@H](C)C4=CC(=O)CC[C@]4(C)[C@H]3CC[C@@]21C | Not Active | Not Active | Not Active | Not Active | Not Active | Not Active | – | – | – | – | – | – |
| N#CC(C#N)=Cc1ccc(O)c(O)c1 [TYRPHOSTIN 23] | Not Active | Not Active | Not Active | Not Active | Not Active | Not Active | – | – | – | – | – | – |
